Measurements as given in patent US20070254906A1 (DarPharma, Inc., priority 2004, published 2007).
“Also recorded” adds a separate entry of the source. Counter-ions that a name gives are not always drawn. Like-named read-outs stand apart in the source and are kept apart here.

Key:
[1] = biological target: 40 binding sites (other than the D1 site); experiment: Screen at about 40 receptor binding sites; details: inactive at all except D2 and alpha2
[2] = biological target: alpha2 adrenergic receptors; experiment: Binding at alpha2 adrenergic receptors (screen); details: Method Example 2 text
[3] = Half-life, duration of action and oral absorption; format: in vivo; details: for half-life: intravenous, read-out: half-life when given intravenously
injured rat lung = experiment: Fluid resorption in rat model of lung injury; format: in vivo; details: intravenous administration, listed as DHX, hydrochloride
[4] = tested on: rabbit model of lung injury; experiment: Fluid resorption in rabbit model of lung injury; format: in vivo; details: intravenous route
[5] = tested on: dopamine release and reuptake; experiment: Dopamine release and reuptake
dopamine D1 receptor = details: read-out: IC50, binding to dopamine D1 receptor; Mottola et al. (1992); cited from earlier work
[6] = biological target: 40 binding sites (other than the D1 site); details: inactive; Mottola et al. (1992); read-out: IC50 at about 40 different receptor binding sites; cited from earlier work
[7] = biological target: alpha2 adrenergic receptors; details: Mottola et al. (1992); cited from earlier work
adenylate cyclase [8] = experiment: Stimulation of adenylate cyclase by dihydrexidine; details: for efficacy in stimulating adenylate cyclase: compared with dopamine, rat, monkey, and human brain tissue, hydrochloride
D2 receptors [9] = format: binding, rat
D1 receptors [10] = experiment: Binding affinity at rat brain striatal D1 receptors (3H-SCH 23390); details: for D1:D2 Selectivity: rat brain striatal homogenates
D2 receptors [11] = biological target: T1, D2 receptors (Rattus norvegicus, UniProt P61169); format: binding; details: rat brain striatal homogenates, 3H-spiperone; read-out: D2 Affinity (K0.5) ± SEM
T1 construct: other: rat brain striatal homogenates, 3H-spiperone

D1 receptors [12] = biological target: D1 receptors (Rattus norvegicus, UniProt P18901); experiment: Binding affinity at rat brain striatal D1 receptors (3H-SCH 23390); details: read-out: D1 Affinity (K0.5) ± SEM; rat brain striatal homogenates, 3H-SCH 23390
[13] = tested on: alveolar fluid resorption; details: isolated, perfused rat lungs; cited from earlier work
D1 receptor = D1 receptor (Homo sapiens, UniProt P21728); experiment: Alveolar fluid resorption in transgenic mice overexpressing the D1 receptor; details: mice with D1 receptor overexpressed by electroporation
adenylate cyclase [14] = experiment: Activation of adenylate cyclase in rat brain striatum; format: biochemical; details: compared with dopamine
lung liquid clearance = details: cited from earlier work
[15] = background statement; cited from earlier work

T1 sequence (P61169 whole entry): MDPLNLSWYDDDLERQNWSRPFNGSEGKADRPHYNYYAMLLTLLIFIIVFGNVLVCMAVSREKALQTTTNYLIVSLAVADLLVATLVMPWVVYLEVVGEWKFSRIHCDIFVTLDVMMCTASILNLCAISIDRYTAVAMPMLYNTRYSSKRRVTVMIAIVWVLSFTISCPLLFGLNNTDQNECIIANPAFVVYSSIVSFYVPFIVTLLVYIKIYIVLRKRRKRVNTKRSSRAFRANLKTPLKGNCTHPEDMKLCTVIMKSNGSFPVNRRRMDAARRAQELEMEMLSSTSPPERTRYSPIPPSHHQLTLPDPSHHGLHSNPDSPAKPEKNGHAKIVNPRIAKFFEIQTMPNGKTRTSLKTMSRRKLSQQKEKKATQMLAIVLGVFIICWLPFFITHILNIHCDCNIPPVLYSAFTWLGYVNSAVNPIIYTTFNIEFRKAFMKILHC
Sequence of D1 receptors (Rattus norvegicus, UniProt P18901) (P18901 whole entry, the tested form may be a part): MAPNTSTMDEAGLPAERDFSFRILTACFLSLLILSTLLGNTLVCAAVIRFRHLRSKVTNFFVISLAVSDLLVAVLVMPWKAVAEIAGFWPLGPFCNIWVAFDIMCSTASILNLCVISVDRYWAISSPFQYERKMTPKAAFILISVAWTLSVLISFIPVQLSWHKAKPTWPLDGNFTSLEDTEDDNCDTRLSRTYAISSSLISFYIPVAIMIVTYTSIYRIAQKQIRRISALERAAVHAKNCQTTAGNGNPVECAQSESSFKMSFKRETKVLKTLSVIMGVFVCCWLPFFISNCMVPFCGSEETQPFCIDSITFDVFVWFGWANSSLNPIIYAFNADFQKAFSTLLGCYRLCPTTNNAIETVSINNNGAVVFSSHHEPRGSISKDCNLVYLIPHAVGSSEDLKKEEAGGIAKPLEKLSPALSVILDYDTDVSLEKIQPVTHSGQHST
Sequence of D1 receptor (P21728 whole entry): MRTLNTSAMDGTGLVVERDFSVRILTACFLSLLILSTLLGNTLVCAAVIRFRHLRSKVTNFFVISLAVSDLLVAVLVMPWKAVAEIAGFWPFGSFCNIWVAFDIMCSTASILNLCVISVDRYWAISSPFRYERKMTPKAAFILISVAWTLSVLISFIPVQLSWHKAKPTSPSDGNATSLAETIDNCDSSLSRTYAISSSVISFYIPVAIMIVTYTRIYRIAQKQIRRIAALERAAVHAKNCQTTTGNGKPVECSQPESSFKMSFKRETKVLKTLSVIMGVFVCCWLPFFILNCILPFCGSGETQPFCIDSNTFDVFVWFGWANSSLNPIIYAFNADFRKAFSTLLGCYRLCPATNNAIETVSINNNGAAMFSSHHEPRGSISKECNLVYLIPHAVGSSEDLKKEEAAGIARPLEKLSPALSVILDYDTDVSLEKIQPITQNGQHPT

In the case of `Br.Oc1ccc2c(c1O)Oc1cccc3c1C2CNC3` (centres unmarked), the melting point is reported as 298 to 302 °C (dec.).
With `Oc1ccc2c(c1O)Cc1cccc3c1C2CNC3` (centres unmarked) (as salt: hydrobromid) [dinapsoline, 8,9-Dihydroxy-2,3,7,11b-tetrahydro-1H-napth[1,2,3-de]isoquinoline] the melting point was 258 °C (dec.).
For `Oc1cc2c(cc1O)[C@H]1c3ccccc3CN[C@@H]1CC2` (racemic) [dihydrexidine, Trans-10,11-dihydroxy-5,6,6a,7,8,12b-hexahydrobenzo[α]phenanthridine hydrochloride], the IC50 [1] was > 10000 nM, the IC50 [2] was ~230 nM and the half-life ([3]; in vivo) was ~30 min. For the same compound, the “oral absorption / oral bioavailability” value ([3]; oral administration, listed as DHX, hydrochloride) was “relatively poor; also recorded: poorly absorbed”, the half-life ([3]; serum) was < 10 min and the “functional half-life when given subcutaneously” value ([3]; subcutaneous) was “about 3 hr”. The “fluid absorption / resorption from injured lung” value (injured rat lung) was “shown efficacy; also recorded: shown to induce fluid resorption”, the “fluid resorption in lung injury model” value [4] was “shown to induce fluid resorption” and the “releasing dopamine or blocking its reuptake” value [5] was “inactive”. For the same compound, the IC50 (dopamine D1 receptor) was ~10 nM, the IC50 [6] was > 10000 nM and the IC50 [7] was 230 nM. The “efficacy in stimulating adenylate cyclase” value (adenylate cyclase [8]) was “full efficacy” and the “efficacy in stimulating adenylate cyclase” value (adenylate cyclase [8]; listed as DHX) was “as efficacious as dopamine”.
In the case of `Cc1ccc2c(c1)[C@H]1c3cc(O)c(O)cc3CC[C@@H]1NC2` (relative stereo) (as salt: hydrochloride) [Compound 6b, Trans-2-methyl-10,11-dihydroxy-5,6,6a,7,8,12b-hexahydrobenzo [α]phenanthridine hydrochloride], the melting point is reported as 190 °C (dec.).
With `Cc1ccc2c(c1)CN[C@H]1CCc3cc(O)c(O)cc3[C@H]21` (relative stereo) (as salt: hydrochloride) [Compound 6c, Trans-3-methyl-10,11-dihydroxy-5,6,6a,7,8, 12b-hexahydrobenzo[α]phenanthridine hydrochloride] the melting point was 190 °C (dec.).
With `Cc1ccc2c(c1)CN[C@H]1CCc3cc(O)c(O)cc3[C@H]21` (relative stereo) [Compound 6c, Trans-3-methyl-10,11-dihydroxy-5,6,6a,7,8, 12b-hexahydrobenzo[α]phenanthridine hydrochloride] the “D2 potency relative to dihydrexidine” value (D2 receptors [9]) was “greater D2 potency”, the “D1 potency and efficacy relative to dihydrexidine” value (D1 receptors [10]) was “comparable to dihydrexidine” and the “D1:D2 Selectivity” value (D1 receptors [10]) was 6.
For `Cl.Oc1cc2c(cc1O)[C@@H]1c3cc(Cc4ccccc4)ccc3CN[C@H]1CC2` (relative stereo) [Compound 6e, Trans-2-benzyl-10,11-dihydroxy-5,6,6a,7,8,12b-hexahydrobenzo[α]phenanthridine hydrochloride], the Ki (D2 receptors [11]) was 185 nM, the Ki (D1 receptors [12]) was 290 nM and the “D1:D2 Selectivity” value (D1 receptors [10]) was 0.6.
With `CCCN1Cc2cccc3c2C(C1)c1ccc(O)c(O)c1O3` (centres unmarked) [Compound 16c, N-propyl-8,9-dihydroxy-1,2,3,11b-tetrahydrochromeno[4,3,2-de]isoquinoline] the melting point was 259 to 264 °C (dec.).
For `CN1CCc2cc(Cl)c(O)cc2C(c2ccccc2)C1` (centres unmarked) [SCH 23390], the “blockade of the dopamine effect on alveolar fluid resorption” value [13] is given as “blocked”, the “blockade of dihydrexidine stimulation of adenylate cyclase” value (adenylate cyclase [8]; D1 antagonist) is given as “blocked” and the “blockade of the increase in alveolar fluid resorption” value (D1 receptor) is given as “blocked”.
With `Oc1ccc2c(c1O)Cc1cccc3c1C2CNC3` (centres unmarked) [dinapsoline, 8,9-Dihydroxy-2,3,7,11b-tetrahydro-1H-napth[1,2,3-de]isoquinoline] the “efficacy in activating adenylate cyclase in rat brain striatum” value (adenylate cyclase [14]) was “as effective as dopamine”.
In the case of `NCCc1ccc(O)c(O)c1` [dopamine], the “increase in lung liquid clearance” value (lung liquid clearance; dopamine instilled at 10-5) is given as 131%, the “increase in lung liquid clearance” value (lung liquid clearance; dopamine instilled at 10-6) is given as 47% and the “increase in lung liquid clearance” value (lung liquid clearance; dopamine instilled at 10-8) is given as 27%. For the same compound, the “increase in alveolar fluid resorption” value [13] was 98%.
For `Oc1ccc(C2CNCCc3c2cc(O)c(O)c3Cl)cc1` (centres unmarked) [fenoldopam], the half-life [15] is listed as “about 15 minutes”.
In the case of `CCN1CCCC1CNC(=O)c1cc(S(N)(=O)=O)ccc1OC` (centres unmarked) [sulpiride], the “blockade of the dopamine effect on alveolar fluid resorption” value [13] is given as “not”.
